# Assays:
# TNF [1] = test: TNF production in splenic CD11c+ DCs ex vivo; format: cell-based, mouse; conditions: indole overnight
# From the text: To evaluate the possible role of AhR in mediating the anti-inflammatory effects of indole on DCs, AhR-deficient mice were acquired and analyzed splenic and bone marrow-derived DCs. Splenocytes from AhR-deficient and WT mice were first treated overnight with indole, followed by stimulation with heat-killed S. typhimurium.
# TNF [2] = test: TNF production in BMDCs, intracellular staining, flow cytometry; format: cell-based, mouse
# CCR7 = CCR7 surface expression on BMDCs; format: cell-based, mouse
# Procedure: FIG. 14 graphically illustrates that indole upregulates CCR7 expression in DCs. Flow cytometric analysis were performed on BMDCs cultured from day 3 in the presence of indole (1 mM), RA (1 uM), or DMF control and either surface stained for CCR7 expression directly or treated with LPS (1 ug/ml) for 24 hours prior to CCR7 staining.
# Encountering maturation-inducing stimuli induces an upregulation of the chemokine receptor CCR7 in DCs. This shift promotes DC migration from peripheral tissues to the lymph nodes to present captured antigen. CCR7 expression facilitates this migration by rendering DCs sensitive to the chemoattractants, CCL19 and CCL21, which direct DCs to T cell areas of lymphoid tissues. […] Exposure to LPS is a DC-activating signal known to upregulate CCR7 expression in order to prime DCs for lymph node entry. Consistent with the literature, exposure to LPS for 24 hours further induced CCR7 expression in our BMDC cultures overall. Here, indole-conditioned DCs once again expressed a higher level of CCR7 expression compared to controls by over 3-fold in magnitude (FIG. 14).
# Erk = test: pERK signaling in BMDCs; format: cell-based, mouse; conditions: 1 mM TDMM 24 hours, CpG (5 uM) 15 minutes
# Procedure: (§1) The inventors performed a series of assays where bone marrow derived macrophages (BMDMs), bone marrow derived dendritic cells (BMDCs), and splenic dendritic cells (splenic DCs), were exposed to a series of TDMMs, including indole, indole-3-acetate (I3AT), 5-hydroxyindole (5HI), and indole-3-pyruvate (I3P), as well as indole-3-carbinol (I3C; a plant derived compound) to be used for a positive control (1 mM for 24 hours). The BMDMs and BMDCs were stimulated with LPS for 4 hours and assayed at day 7 for expression of various pro-inflammatory cytokines. In a similar assay, the BMDMs and BMDCs were stimulated with LPS or CpG, respectively, for 15 minutes and assayed for pAKT and pERK signaling, which is a reflection of pro-inflammatory response.
# Stat3 = test: IL-6 induced pSTAT3 signaling in splenic DCs; format: cell-based, mouse; conditions: splenic DCs, 1 mM TDMM 24 hours, IL-6 (10 ng/ml) 30 minutes
# Procedure: Briefly, flow cytometric analysis was performed on splenic DCs conditioned with the indicated TDMMs for 24 hours and then subsequently stimulated with 10 ng/ml IL-6 for 30 minutes.
# TNF [3] = test: TNF production in BMDCs, intracellular staining, flow cytometry; format: cell-based, mouse; conditions: 1 mM TDMM 24 hours, LPS (1 ug/ml) 4 hours
# Procedure: Intracellular staining was performed to assess TNF production.
# Intracellular staining was performed to assess TNF (FIG. 3A) and IL-12 (FIG. 3B) production.
# Briefly, bone marrow was harvested from femurs of mice and cultured for 7 days in the presence of DC-skewing cytokines, GM-CSF and IL-4. […] The pro-inflammatory cytokines, IL-6 and IL-12, were specifically queried. […] Immune cells communicate largely through the production of soluble factors including cytokines, and DCs detect these signals and determine their effector functions accordingly.
# as §1
# [4] = Pinero-Fernandez et al. 2011; cited from earlier work
# TGF-β = TGF-β production by BMDC cultures (ELISA); format: cell-based, mouse; conditions: indole-conditioned DCs
# Procedure: To determine whether this was a specific downregulation of pro-inflammatory cytokines, production of the canonical DC-produced anti-inflammatory cytokines, IL-10 and TGF-β, was also examined.
# Cytokine concentration in the supernatant of BMDC cultures was assessed using commercially available ELISA kits for IL-10 (Peprotech) and TGF-β (eBioscience) per the manufacturer's instructions.
structure (smiles),measurement,setting,value
"c1ccc2[nH]ccc2c1 [Indole, indole]",inhibition of TNF production,"TNF [1]; splenic CD11c+ DCs, LPS or heat-killed S. typhimurium",≥ 2 fold
same,inhibition of TNF production,"TNF [1]; splenic DCs from AhR−/− mice, heat-killed S. typhimurium",2 fold
same,inhibition of TNF production,"TNF [1]; splenic DCs from WT mice, heat-killed S. typhimurium",2 fold
same,reduction in TNF,"TNF [2]; BMDCs exposed to indole from day 3 of 7 day culture, LPS stimulation",30%
same,inhibition of TNF production,"TNF [2]; BMDCs, indole for 18 hours followed by TLR stimulation",~2 fold
same,CCR7 expression compared to controls,"CCR7; BMDCs, indole 1 mM from day 3, LPS for 24 hours",over 3 fold
same,increase in CCR7 expression over RA or solvent controls,"CCR7; day 7 freshly harvested BMDCs, indole 1 mM from day 3",approximately 5 fold
same,pERK,Erk,↓↓
same,"IL-6 induced pSTAT3 expression, CD4+ DCs",Stat3,↓↓
same,"IL-6 induced pSTAT3 expression, CD4− DCs",Stat3,↓↓
same,TNF,TNF [3],↓↓
same,diffusion across membranes,[4],freely diffusible across membranes
same,TGF-β production,TGF-β,Neither IL-10 nor TGF-β production were affected

# Reference: patent US11612586B2, “Indole regulation of antigen presenting cells” (THE TEXAS A&M UNIVERSITY SYSTEM, priority 2016, dated 2023)
